Source: patent publication US11827624B2, “Covalent immune recruiter compounds for immune cell recognition and associated uses” (McMaster University, priority 2020, dated 2023)
pKi: −log10 of the molar value. Where “and” joins values, the source holds several entries; their conditions need not be identical. Identical values can stand only once.

Tested on: humanized anti-DNP SPE7 (mmAb)
Test: BLI covalent labeling kinetics assay on IgG Fc capture probes, mmAb
Format: binding
Procedure: Kinetic assays to characterize the second order rate constant (kinact/KI) describing the CIR+Ab labeling reaction involved incubating increasing concentrations of CIR 3 or CIR 5 with a fixed concentration (75 nM) of anti-DNP mmAb in solution, for different periods of time. PSMA binding to CIR-Ab complexes increases the total mass associated with the probe surface leading to signal increases (nm shift). CIR 3 (500 nM) and 75 nM of either mmAb or mAb (AcroBiosystems Catalog #DNP-M2) was reacted in 1× Kinetics Buffer (ForteBio) for four hours prior to the experiment. IgG Fc capture (ProG) probes from ForteBio were placed in 1× Kinetics Buffer for 20 minutes prior to the experiment for wetting. The experiment was conducted using an Octet Red96 (ForteBio), where the acquisition rate was set to 5 Hz and the temperature was held at 25° C. The plate shaker setting was 1000 RPM. A volume of 250 μL of each solution was loaded onto a black flat-bottom 96-well plate (Grenier). The experiment began by placing the ProG probes in 1×Kinetics Buffer for four minutes to establish a baseline. Next, the probes were placed into the CIR 3 and anti-DNP antibody reaction mixture to load the covalent complex (CIR-Ab) onto the probe. Next, the probes were placed in a solution of 5 mM DNP-glycine competitor in 1×Kinetics Buffer in order to disrupt any non-covalent or non-specific binding. The baseline was re-established by then placing the probes in 1× Kinetics Buffer for 0.5 minutes. To measure PSMA association, the probes were placed in a solution of 500 nM human PSMA protein in 1× Kinetics Buffer for 10 minutes. The probes were then placed in 1×Kinetics Buffer for 10 minutes to measure dissociation. The raw nm shift signal for the association and dissociation step obtained by the Octet Red96 was first baselined to the beginning of the association step (t=0 second) by subtracting the association signal at t=0 from the measured signal at each time point. The Kd was determined by fitting both the association and dissociation curves using the ‘association then dissociation’ binding model in GraphPad Prism 8. The experiment was repeated once for a total of two replicates.
The specific labelling of an antibody by a CIR occurs via a two-step mechanism. In the first step, the CIR binds to the antibody via its ABD and forms a reversible complex. […] This second order rate constant was determined by monitoring covalent product (CIR-Ab) formation as a function of time via BLI using IgG Fc capture probes (note: a non-specific labeling reaction occurs independent of binding to the DNP binding site with any biological nucleophile and follows second order kinetics without saturation). […]

For `O=C(O)CC[C@H](NC(=O)N[C@@H](CCCCNC(=O)NCCOCCOCCOCCOCCOCCOCCOCCOC(=O)n1cnc(CCNC(=O)CNc2ccc([N+](=O)[O-])cc2[N+](=O)[O-])c1)C(=O)O)C(=O)O` [CIR 3], the “covalent reaction selectivity at excess CIR” value (20-fold excess (1.5 μM), mAb and mmAb) was “high covalent reaction selectivity for the DNP hapten binding site on both mAb and mmAb was observed”, the “Kinact/Kl ^c” value (mmAb) was 12000 ± 1000 M⁻¹ s⁻¹ and the “Kinact^c” value (mmAb, 75 nM antibody) was 4.0 × 10^−4 ± 0 s^−1. The pKi (mmAb, read-out: Kl ^c) was ~7.52 and 7.52.
